≈ marks a conversion by molar mass, not a printed value. Where “and” joins values, the source holds several entries; their conditions need not be identical. Equal entries are not always repeated. A value given as a limit tells only on which side of the number the result lay.

A short description of data set [1]: DNDI: half life in human liver microsomes at a concentration of 10uM. The class given is ADME, Microsome.
The test system of data set [2] is Trypanosoma brucei. The experiment in a line: DNDI: Inhibition of Human African Trypanosomiasis, EATRO 110, in vitro. It is filed as functional, organism-based.
Data set [3] can be described thus: DNDI: in vitro intrinsic clearance in mouse liver microsomes at a concentration of 10uM. The class given is ADME, Microsome. Particulars: read-out: CLint in vitro.
A short description of data set [4]: DNDI: Lipophilicity measured in Chromatographic hydrophobicity index (CHI) assay, pH 7.4. The class given is physicochemical. Particulars: buffer.
The conditions of data set [5]: mouse, microsomes, 1 µM.
Description: DNDI: in vitro intrinsic clearance in mouse liver microsomes at a concentration of 1uM
Data set [6] can be described thus: DNDI: half life in mouse liver microsomes at a concentration of 10uM. It is filed as ADME, Microsome.
The test system of the next data set is L929. The data set can be described thus: (§1) DNDI: Cytotoxicity against L929 mouse fibroblasts, CYTO-SP, 24 hour. As to conditions: l929. The class given is toxicity, cell-based.
A short description of data set [7]: as §1. It is filed as toxicity, cell-based. Particulars: mouse, L929 mouse fibroblasts.
Data set [8] can be described thus: DNDI: in vitro intrinsic clearance in human liver microsomes at a concentration of 10uM. The class given is ADME, Microsome.
Another data set in a line: in vitro. Particulars: mouse, liver microsomes, t (1 / 2).
A short description of data set [9]: DNDI: Solubility in phosphate buffered saline at pH7.4 measured by optical density (turbidimetry) at room temperature (OD-RT). The class given is physicochemical. As to conditions: pH 7.4.
The nature of data set [10]: DNDI: Cytotoxicity against L929 mouse fibroblasts, 72 hour. It is filed as toxicity, cell-based. As to conditions: mouse, L929 mouse fibroblasts.
Data set [11] concerns Trypanosoma brucei. The experiment in a line: DNDI: Inhibition of Human African Trypanosomiasis, Cross 22, in vitro. The class given is functional, organism-based.
Data set [12] deals with Trypanosoma brucei. The data set can be described thus: DNDI: Inhibition of Human African Trypanosomiasis, SBRI 427, in vitro. It is filed as functional, organism-based.
In data set [13] the target is T1, MDR1 (ABCB1) (Homo sapiens, UniProt P08183). The experiment in a line: DNDI: % of compound recovered from basolateral to apical permeability assay in MDCK cells transfected with human MDR1. It is filed as ADME, cell-based, Canis lupus familiaris. As to conditions: dog.
T1 sequence (P08183 whole entry): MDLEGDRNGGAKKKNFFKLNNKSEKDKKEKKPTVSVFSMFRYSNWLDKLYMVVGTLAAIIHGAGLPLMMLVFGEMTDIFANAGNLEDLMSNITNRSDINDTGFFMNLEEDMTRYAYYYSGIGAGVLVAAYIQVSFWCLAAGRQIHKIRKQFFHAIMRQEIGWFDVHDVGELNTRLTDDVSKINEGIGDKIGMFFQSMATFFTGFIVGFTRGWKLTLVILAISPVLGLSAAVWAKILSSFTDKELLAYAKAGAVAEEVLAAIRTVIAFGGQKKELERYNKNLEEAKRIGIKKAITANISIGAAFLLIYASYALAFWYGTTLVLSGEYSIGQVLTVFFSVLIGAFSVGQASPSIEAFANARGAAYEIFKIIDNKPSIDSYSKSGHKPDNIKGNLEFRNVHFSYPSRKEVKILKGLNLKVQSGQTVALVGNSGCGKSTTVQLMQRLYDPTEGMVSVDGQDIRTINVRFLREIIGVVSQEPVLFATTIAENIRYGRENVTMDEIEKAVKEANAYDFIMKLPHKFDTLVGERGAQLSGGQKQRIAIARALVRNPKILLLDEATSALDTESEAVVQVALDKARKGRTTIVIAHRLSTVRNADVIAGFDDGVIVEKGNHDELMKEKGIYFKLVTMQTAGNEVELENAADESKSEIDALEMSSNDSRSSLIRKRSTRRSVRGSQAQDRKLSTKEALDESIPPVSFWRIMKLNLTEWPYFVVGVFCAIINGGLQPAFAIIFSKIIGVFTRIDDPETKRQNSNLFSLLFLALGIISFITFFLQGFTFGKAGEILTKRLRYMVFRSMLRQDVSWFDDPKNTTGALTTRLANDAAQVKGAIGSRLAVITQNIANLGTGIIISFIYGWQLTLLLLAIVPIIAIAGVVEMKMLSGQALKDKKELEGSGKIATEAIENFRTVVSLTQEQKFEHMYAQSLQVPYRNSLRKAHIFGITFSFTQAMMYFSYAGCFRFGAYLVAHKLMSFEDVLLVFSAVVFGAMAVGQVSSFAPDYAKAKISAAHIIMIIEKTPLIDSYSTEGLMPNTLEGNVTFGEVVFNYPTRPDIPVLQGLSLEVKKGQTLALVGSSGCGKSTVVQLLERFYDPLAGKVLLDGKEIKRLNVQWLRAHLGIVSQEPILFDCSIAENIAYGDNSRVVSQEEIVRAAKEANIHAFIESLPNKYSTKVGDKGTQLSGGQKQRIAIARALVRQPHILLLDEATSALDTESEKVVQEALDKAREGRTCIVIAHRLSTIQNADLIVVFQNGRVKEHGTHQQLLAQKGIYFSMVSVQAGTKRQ
Data set [14] addresses T1, MDR1 (ABCB1). The experiment in a line: DNDI: Efflux ratio for permeability from basolateral to apical side to apical to basolateral side of MDCK cells transfected with human MDR1. The class given is ADME, cell-based, Canis lupus familiaris. Particulars: dog, read-out: B-A/A-B.
The target in data set [15] is T1, MDR1 (ABCB1). The experiment in a line: DNDI: Apparent permeability from basolateral to apical side of the MDCK cell transfected with human MDR1 after 60 mins at a concentration of 3uM. It is filed as ADME, cell-based, Canis lupus familiaris. Particulars: dog.
Data set [16] has as its target T1, MDR1 (ABCB1). The data set can be described thus: DNDI: Apparent permeability from apical to basolateral side of the MDCK cell transfected with human MDR1. The class given is ADME, cell-based, Canis lupus familiaris. As to conditions: dog.
The target in data set [17] is T1, MDR1 (ABCB1). The experiment in a line: DNDI: % of compound recovered from apical to basolateral permeability assay in MDCK cells transfected with human MDR1. The class given is ADME, cell-based, Canis lupus familiaris. Particulars: dog.
A short description of data set [18]: DNDI: half-life in mouse S9 microsomes at a concentration of 1uM. It is filed as ADME, subcellular, Liver, S9 fraction.
The nature of data set [19]: DNDI: half-life in mouse S9 microsomes at a concentration of 10uM. The class given is ADME, subcellular, Liver, S9 fraction.
A short description of data set [20]: DNDI: Solubility in phosphate buffered saline at pH7.4 measured by nephelometry at room temperature (NEPH-RT). It is filed as physicochemical. As to conditions: pH 7.4.
[21] abbreviates: Trypanosoma brucei, SBRI 427, read-out: IC50.

Description for in vitro: DNDI: half life in mouse liver microsomes at a concentration of 1uM

For the molecule `CCOc1ccc(-c2nc(CNC3C[C@@H]4C[C@H]([C@H]3C)C4(C)C)co2)cc1` (some centres undefined), the values for the half-life at 10 µM in [1] and in data set [6] were 2.9 h and 0.4 h, respectively. In addition, the IC50 with Trypanosoma brucei [2] was 1.16 µg/mL (≈ 3.27 µM); in the data set with L929, 28.6 µg/mL (≈ 80.7 µM); in the data set with Trypanosoma brucei [11], 1.72 µg/mL (≈ 4.85 µM); with Trypanosoma brucei [12], 1.07 ug/ml [middle of 5 runs]. The microsomal CLint at 10 µM in data set [3] was 121 µL/min/mg. Moreover, the chromatographic logD in [4] worked out at 5.22. Moreover, the CLint in vitro in data set [5] is 207 µL/min/mg; in data set [8], 17 µL/min/mg. Besides, the half-inhibitory concentration (IC50) at 24 h in data set [7] was greater than 50 µg/mL. Besides, the half-life at 1 µM in the data set “in vitro” is 0.0667 h. In addition, the kinetic solubility in data set [9] amounted to 6.3 µM (≈ 2.23 µg/mL). The molecule further registered a 50% inhibitory concentration (IC50) at 72 h in data set [10] of 3.51 µg/mL (≈ 9.9 µM).
Regarding `CCCCCC(C)NCc1coc(-c2ccccc2OCC)n1` (centres undefined), the concentration for half-maximal inhibition (IC50) in the data set with L929 was found to be 38.6 µg/mL (≈ 122 µM). For the same molecule, the 50% inhibitory concentration (IC50) at 24 h in data set [7] was found to be 27 µg/mL (≈ 85.3 µM). The same molecule came in with a concentration for half-maximal inhibition (IC50) at 72 h in [10] of 7.79 µg/mL (≈ 24.6 µM).
Consider `CCOc1ccc(-c2nc(CNC[C@@H]3CC[C@H]4C[C@@H]3C4(C)C)co2)cc1`, for which the recovery came out at 42% on MDR1 (ABCB1) [13] and 21% on MDR1 (ABCB1) [17]. Besides, the IC50 was 0.71 µg/mL (≈ 2 µM) with Trypanosoma brucei [2]; 1.57 µg/mL (≈ 4.43 µM) in the data set on Trypanosoma brucei [11]; 1.47 µg/mL and 1.38 µg/mL in the data set with Trypanosoma brucei [12]; 1.18 µg/mL (≈ 3.33 µM) with Trypanosoma brucei [12] (setting [21]). For the same molecule, in data set [3], the microsomal CLint at 10 µM is 35 µL/min/mg. At MDR1 (ABCB1) [14], the efflux ratio came to 0.8. For the same molecule, in [4], the chromatographic logD came out at 5.5. In data set [5], this molecule returned a CLint in vitro of 86 µL/min/mg. For the same molecule, the Papp B→A at 1 h, 3 µM on MDR1 (ABCB1) [15] worked out at 6.74 ×10⁻⁶ cm/s. For the same molecule, in data set [6], the half-life at 10 µM was found to be 1.35 h. Also, in data set [7], half-maximal inhibition (IC50 at 24 h) required 45.2 µg/mL (≈ 128 µM). Also, the half-life at 1 µM in “in vitro” was 0.167 h. Also, the Papp A→B on MDR1 (ABCB1) [16] stood at 8.16 ×10⁻⁶ cm/s. The solubility (kinetic) in data set [9] came out at 0.8 µM (≈ 0.284 µg/mL). Further, in data set [10], the IC50 at 72 h stood at 3.26 µg/mL (≈ 9.2 µM).
For `Fc1ccc(-c2cc3nc(-c4ccccc4)cc(NC4CCNC4)n3n2)cc1` (centres undefined), the half-life at 1 µM in data set [18] is 1.39 h. The half-life at 10 µM in data set [19] amounted to 2.82 h. The molecule also came in with a concentration for half-maximal inhibition (IC50) at 72 h in [10] of 1.39 µg/mL (≈ 3.72 µM). Besides, the IC50 in the data set with Trypanosoma brucei [12] (setting [21]) amounted to 0.583 µg/mL (≈ 1.56 µM).
Molecule `Fc1ccc(-c2cc3nc(-c4ccccc4)cc(N4CCNCC4)n3n2)cc1` displayed a chromatographic logD in [4] of 4.98. In addition, the kinetic solubility in [20] is 3 µM (≈ 1.12 µg/mL). The molecule further yielded a half-life at 1 µM in data set [18] of 1.28 h. The molecule also displayed a half-life at 10 µM in data set [19] of 3.68 h. Besides, the IC50 at 72 h in data set [10] worked out at 0.73 µg/mL (≈ 1.95 µM). Besides, the 50% inhibitory concentration (IC50) with Trypanosoma brucei [12] (setting [21]) stood at 0.422 µg/mL (≈ 1.13 µM).
